Reference: ChEMBL document CHEMBL1201862, “PubChem BioAssay data set” (2004)
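A five-concentration, 48-hour dose response in 96-well plates underlies each endpoint, interpolated linearly between surrounding concentrations. Here, GI50 denotes the concentration required for 50% inhibition of growth.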 The source made the active and inactive calls. Cut-off read from the data, not from the text of the source: active = GI50 up to about 1.1 µM and inactive = higher.

Assays:
Assay in all cases: NCI anticancer screen, dose series, 48 h
HT-29 = test system: HT-29
LOX IMVI = test system: LOX IMVI
OVCAR-8 = test system: OVCAR-8
KM-20L2 = test system: KM-20L2
HCC 2998 = test system: HCC 2998
SN12C = test system: SN12C
SNB-19 = test system: SNB-19
A498 = test system: A498
M19-MEL = test system: M19-MEL
HOP-92 = test system: HOP-92
SF-295 = test system: SF-295
NCI-H23 = test system: NCI-H23
DLD-1 = test system: DLD-1
CAKI-1 = test system: CAKI-1
RPMI-8226 = test system: RPMI-8226
UACC-62 = test system: UACC-62

Measured: GI50

O=C(N/C(=C\c1ccc(/C=C(\NC(=O)c2ccccc2)c2nc3ccccc3s2)cc1)c1nc2ccccc2s1)c1ccccc1
inactive: HT-29 3.73 µM | LOX IMVI 4.21 µM | OVCAR-8 2.34 µM | KM-20L2 2.19 µM | HCC 2998 14.7 µM | SN12C 3.99 µM | SNB-19 4.09 µM | A498 17.1 µM | M19-MEL 4.72 µM | HOP-92 12.5 µM | SF-295 4.5 µM | NCI-H23 11.6 µM | DLD-1 3.28 µM | CAKI-1 14.9 µM | RPMI-8226 3.64 µM | UACC-62 2.37 µM

Cc1nc2c(nc1C)C(=O)c1cc(O)ccc1C2=O
inactive: HT-29 35.2 µM | LOX IMVI 53.1 µM | OVCAR-8 53.2 µM | KM-20L2 57.4 µM | HCC 2998 > 67.6 µM | SN12C > 73.5 µM | SNB-19 99.1 µM | A498 > 69.8 µM | M19-MEL 8.13 µM | HOP-92 > 100 µM | SF-295 > 87.1 µM | NCI-H23 > 100 µM | DLD-1 > 51.3 µM | CAKI-1 > 100 µM | RPMI-8226 > 51.1 µM | UACC-62 22.3 µM

Cc1c(C#N)c(=O)[nH]c(=O)n1CCN1CCN(C(=O)NCCCCCCNC(=O)N2CCN(CCn3c(C)c(C#N)c(=O)[nH]c3=O)CC2)CC1
inactive: HT-29 > 100 µM | LOX IMVI > 100 µM | OVCAR-8 > 100 µM | KM-20L2 > 100 µM | HCC 2998 > 100 µM | SN12C > 100 µM | SNB-19 > 100 µM | A498 > 100 µM | M19-MEL > 100 µM | HOP-92 > 100 µM | SF-295 > 100 µM | NCI-H23 > 100 µM | DLD-1 > 100 µM | CAKI-1 > 100 µM | RPMI-8226 > 100 µM | UACC-62 > 100 µM

N[C@H](C(=O)O)[C@@H](Cl)CC(=O)O
inactive: HT-29 > 100 µM | LOX IMVI > 100 µM | OVCAR-8 > 100 µM | KM-20L2 > 100 µM | HCC 2998 > 100 µM | SN12C > 100 µM | SNB-19 > 100 µM | A498 > 100 µM | M19-MEL > 100 µM | HOP-92 > 100 µM | SF-295 > 100 µM | NCI-H23 > 100 µM | DLD-1 > 100 µM | CAKI-1 > 100 µM | RPMI-8226 > 100 µM | UACC-62 > 100 µM

COc1cccc2c1CCc1ccccc1CC2=O
inactive: HT-29 > 100 µM | LOX IMVI > 100 µM | OVCAR-8 > 100 µM | KM-20L2 > 100 µM | HCC 2998 > 100 µM | SN12C > 100 µM | SNB-19 > 100 µM | A498 > 100 µM | M19-MEL > 100 µM | HOP-92 > 100 µM | SF-295 > 100 µM | NCI-H23 > 100 µM | DLD-1 > 100 µM | CAKI-1 > 100 µM | RPMI-8226 > 100 µM | UACC-62 > 100 µM

Nn1c(-c2ccccc2)nc2ccc(Br)cc2c1=O
inactive: HT-29 61 µM | OVCAR-8 35.4 µM | KM-20L2 > 100 µM | HCC 2998 62.7 µM | SN12C 42.7 µM | SNB-19 95.3 µM | A498 70.5 µM | M19-MEL 89.5 µM | HOP-92 12.8 µM | SF-295 58.1 µM | NCI-H23 81.5 µM | DLD-1 35.3 µM | CAKI-1 38.5 µM | RPMI-8226 30.9 µM | UACC-62 45.9 µM

C[Si](C)(C)/N=C1\N2C(=NC1(C(F)(F)F)C(F)(F)F)Sc1ccccc12
inactive: HT-29 > 50 µM | LOX IMVI > 50 µM | OVCAR-8 > 50 µM | KM-20L2 > 50 µM | HCC 2998 > 50 µM | SN12C > 50 µM | SNB-19 > 50 µM | A498 > 50 µM | M19-MEL > 50 µM | HOP-92 29.9 µM | SF-295 > 50 µM | NCI-H23 > 50 µM | DLD-1 > 50 µM | CAKI-1 > 50 µM | RPMI-8226 > 50 µM | UACC-62 > 50 µM

NC(=O)C(=O)C1CCC2=C(Sc3ccccc3N2)C1=O (stereo not given)
inactive: LOX IMVI > 100 µM | OVCAR-8 > 100 µM | KM-20L2 > 100 µM | HCC 2998 > 100 µM | SNB-19 > 100 µM | A498 > 100 µM | M19-MEL > 100 µM | HOP-92 27.4 µM | NCI-H23 > 100 µM | DLD-1 > 100 µM | CAKI-1 > 100 µM | RPMI-8226 > 100 µM | UACC-62 > 100 µM

CN(C)c1nc(N(C)C)n2nc(-c3ccccc3[N+](=O)[O-])nc2n1
inactive: HT-29 > 100 µM | LOX IMVI > 100 µM | OVCAR-8 > 100 µM | KM-20L2 > 100 µM | HCC 2998 > 100 µM | SN12C > 100 µM | SNB-19 > 100 µM | A498 > 100 µM | M19-MEL > 100 µM | HOP-92 > 100 µM | SF-295 > 100 µM | NCI-H23 > 100 µM | DLD-1 48.5 µM | CAKI-1 > 100 µM | RPMI-8226 89.7 µM | UACC-62 > 100 µM

C[Si](C)(C)/C=C/CCC(C=O)(CCCl)c1ccccc1 (stereo not given)
inactive: HT-29 14.6 µM | LOX IMVI 19.1 µM | OVCAR-8 27.7 µM | KM-20L2 28.8 µM | HCC 2998 29.6 µM | SN12C 31.4 µM | SNB-19 42.7 µM | A498 64.1 µM | M19-MEL 27.7 µM | HOP-92 28.1 µM | SF-295 21.1 µM | NCI-H23 21.8 µM | DLD-1 29.5 µM | UACC-62 21.7 µM

Cc1cccc(-c2nnc3s/c(=C\c4ccc(N(C)C)cc4)c(=O)n23)c1
inactive: LOX IMVI > 100 µM | OVCAR-8 > 100 µM | KM-20L2 > 100 µM | HCC 2998 > 100 µM | SN12C > 100 µM | SNB-19 > 100 µM | A498 > 100 µM | M19-MEL > 100 µM | HOP-92 > 100 µM | SF-295 > 100 µM | NCI-H23 > 100 µM | DLD-1 > 100 µM | CAKI-1 > 100 µM | RPMI-8226 > 100 µM | UACC-62 > 100 µM

CC1=Nc2ccccc2C1C(Cc1ccccc1N)c1c(C)[nH]c2ccccc12 (stereo not given)
inactive: HT-29 17.8 µM | LOX IMVI 15 µM | OVCAR-8 16.6 µM | KM-20L2 15 µM | HCC 2998 15.4 µM | SN12C 18.7 µM | SNB-19 22.7 µM | A498 16 µM | M19-MEL 17.4 µM | HOP-92 12.3 µM | SF-295 12.6 µM | NCI-H23 18.2 µM | DLD-1 18.2 µM | RPMI-8226 18.5 µM | UACC-62 13.5 µM

CCOC(=O)C(CC/C=C\c1ccccc1)N1CCC[C@H]1C(=O)OC (stereo not given in full)
inactive: HT-29 > 100 µM | LOX IMVI > 100 µM | OVCAR-8 > 100 µM | KM-20L2 > 100 µM | HCC 2998 > 100 µM | SN12C > 100 µM | SNB-19 > 100 µM | A498 > 100 µM | M19-MEL > 100 µM | HOP-92 > 100 µM | SF-295 > 100 µM | NCI-H23 > 100 µM | DLD-1 > 100 µM | CAKI-1 > 100 µM | RPMI-8226 29.7 µM | UACC-62 > 100 µM
